# Patent US12479803B2, “Antimalarial compounds” (UNIVERSITY OF CENTRAL FLORIDA RESEARCH FOUNDATION, INC., priority 2019, dated 2025)
# Values joined by “and” are separate entries in the source; they are usually repeats but may differ in a detail not shown here. Equal values may be shown once.
# Tested on: CQ-resistant (Dd2) strain of P. falciparum
# Test: In vitro antiplasmodial activity, SYBR Green I fluorescence assay, Dd2 strain
# Type: cell-based, Plasmodium falciparum
# Settings: CQ-resistant (Dd2) strain, 72 h incubation; read-out: EC50 (nmol)
# Protocol: A set of 104 new styrylquinoline derivatives were synthesized and investigated for in vitro their antimalarial activity. To test antimalarial activities, different dilutions of compounds were added to P. falciparum culture. Following 72 h incubation at 37° C. in an atmosphere containing 5% CO2, the inhibitory property of the compounds were determined by SYBR Green I fluorescence assay. Meanwhile, SARs studies were conducted.
# The SAR studies were focused on improving the in vitro activity of 2-arylvinylquinolines against the CQ-resistant Pf Dd2 strain.
row,Structure (SMILES),EC50 [µM]
1,COc1ccc2nc(/C=C/c3ccc(OC)c(OC)c3)cc(NCCN(C)C)c2c1 [Compound 13],0.187 ± 0.0136
2,Clc1ccc2nc(/C=C/c3ccncc3)cc(N3CCCC3)c2c1 [Compound 66],1.19 ± 0.175
3,COc1ccc(/C=C/c2cc(NCCN(C)C)c3cc(OC)ccc3n2)cc1 [Compound 12],0.0436 ± 0.002
4,Fc1cc(F)c(/C=C/c2cc(NCCCCN3CCOCC3)c3cc(Cl)ccc3n2)cc1F [Compound 107],0.197 ± 0.0397
5,CN(C)CCNc1cc(/C=C/c2cccs2)nc2ccc(Cl)cc12 [Compound 48],0.0297 ± 0.0046
6,COc1ccc2nc(/C=C/c3cc(OC)c(OC)c(OC)c3)cc(NCCN(C)C)c2c1 [Compound 14],0.0742 ± 0.0088
7,Clc1ccc2nc(/C=C/c3ccncc3)cc(N3CCOCC3)c2c1 [Compound 63],3.59 ± 0.87
8,CN(C)CCCCNc1cc(/C=C/c2ccc([N+](=O)[O-])cc2)nc2ccc(Cl)cc12 [Compound 36],0.0525 ± 0.002
9,CN(C)CCNc1cc(/C=C/c2ccc([N+](=O)[O-])cc2)nc2ccccc12 [Compound 33],0.0479 ± 0.0095
10,Fc1ccc(/C=C/c2cc(N3CCC(N4CCCCC4)CC3)c3cc(Cl)ccc3n2)cc1 [Compound 71],0.487 ± 0.0695
11,Fc1ccc(/C=C/c2cc(NCCCCN3CCOCC3)c3cc(Cl)ccc3n2)c(F)c1 [Compound 104],0.0726 ± 0.0172
12,CN(C)CCNc1cc(/C=C/c2ccncc2)nc2ccc(F)cc12 [Compound 46],0.0361 ± 0.0021
13,Fc1ccc(/C=C/c2cc(N3CCCC3)c3cc(Cl)ccc3n2)cc1 [Compound 65],0.428 ± 0.015
14,CN(C)CCCCNc1cc(/C=C/c2ccc(F)cc2)nc2ccc(Cl)cc12 [Compound 37],0.0512 ± 0.0016
15,CN(C)CCNc1cc(/C=C/c2cccnc2)nc2ccc(Cl)cc12 [Compound 52],0.0336 ± 0.0058
16,COc1cc(/C=C/c2cc(NCCN(C)C)c3cc(Cl)ccc3n2)cc(OC)c1OC [Compound 27],0.0444 ± 0.0036
17,Fc1ccc(/C=C/c2cc(NCCCCN3CCOCC3)c3cc(Cl)ccc3n2)cn1 [Compound 110],0.0546 ± 0.0165
18,Cc1cc(NCCN(C)C)c2cc(Cl)ccc2n1 [Compound 6c],0.732 ± 0.107
19,Clc1ccc2nc(-c3ccncc3)cc(NCCCCN3CCOCC3)c2c1 [Compound 120],0.796 ± 0.161
20,CN(C)CCNc1cc(/C=C/c2cccc3ccccc23)nc2ccc(Cl)cc12 [Compound 56],0.373 ± 0.019
21,COc1ccc(/C=C/c2cc(NCCN(C)C)c3cc(Cl)ccc3n2)cc1OC [Compound 26],0.0389 ± 0.0078
22,Fc1ccc(/C=C/c2cc(Nc3ccc(N4CCCCC4)cc3)c3cc(Cl)ccc3n2)cc1 [Compound 69],0.667 ± 0.117

row,Structure (SMILES),EC50 [µM]
1,Clc1ccc2nc(/C=C/c3ccncc3)cc(NCCN3CCOCC3)c2c1 [Compound 82],0.137 ± 0.0146
2,Clc1ccc2nc(/C=C/c3ccccc3)cc(NCCN3CCCC3)c2c1 [Compound 84],0.107 ± 0.0084
3,Fc1ccc(/C=C/c2cc(NCCCN3CCOCC3)c3cc(Cl)ccc3n2)cc1 [Compound 90],0.0408 ± 0.0056
4,CN(C)CCNc1cc(/C=C/c2ccc(F)cc2)nc2ccccc12 [Compound 34],0.0255 ± 0.0071
5,FC(F)(F)Oc1ccc(/C=C/c2cc(NCCCCN3CCOCC3)c3cc(Cl)ccc3n2)cc1 [Compound 101],0.0566 ± 0.0076
6,FC(F)(F)c1cccc(/C=C/c2cc(NCCCCN3CCOCC3)c3cc(Cl)ccc3n2)c1 [Compound 100],0.0339 ± 0.0014
7,CN(C)CCNc1cc(/C=C/c2ccc(F)cc2)nc2ccc(F)cc12 [Compound 18],0.0309 ± 0.0055
8,CN(C)CCNc1cc(/C=C/c2ccc([N+](=O)[O-])cc2)nc2ccc(Cl)cc12 [Compound 23],0.0287 ± 0.0038
9,COc1ccc2nc(/C=C/c3cccs3)cc(NCCN(C)C)c2c1 [Compound 40],0.08 ± 0.007
10,Fc1ccc(/C=C/c2cc(NCCN3CCCC3)c3cc(Cl)ccc3n2)cc1 [Compound 83],0.0923 ± 0.0058
11,CN(C)CCNc1cc(/C=C/C2CCCCC2)nc2ccc(Cl)cc12 [Compound 57],0.394 ± 0.04
12,Clc1ccc2nc(/C=C/C=C/c3ccccc3)cc(NCCCCN3CCOCC3)c2c1 [Compound 114],0.143 ± 0.0186
13,CN(C)CCNc1cc(/C=C/c2ccccc2)nc2ccc(Cl)cc12 [Compound 22],0.0224 ± 0.002
14,N#Cc1ccc(/C=C/c2cc(N3CCOCC3)c3cc(Cl)ccc3n2)cc1 [Compound 64],1.01 ± 0.0842
15,CN(C)CCNc1cc(/C=C/c2cccs2)nc2ccc(F)cc12 [Compound 45],0.111 ± 0.0291
16,Fc1ccc(/C=C/c2cc(N3CCN(c4ccccn4)CC3)c3cc(Cl)ccc3n2)cc1 [Compound 67],3.3 ± 0.06
17,FC(F)(F)c1ccc(/C=C/c2cc(NCCCN3CCOCC3)c3cc(Cl)ccc3n2)cc1 [Compound 91],0.0848 ± 0.0063
18,CN(C)CCNc1cc(/C=C/c2nccs2)nc2ccc(Cl)cc12 [Compound 49],0.24 ± 0.0306
19,CN(C)CCCCNc1cc(/C=C/c2ccccc2)nc2ccc(Cl)cc12 [Compound 35],0.068 ± 0.009
20,CN(C)CCNc1cc(/C=C/c2ccccn2)nc2ccc(Cl)cc12 [Compound 51],0.0675 ± 0.0019
21,COc1ccc2nc(/C=C/c3ccc(F)cc3)cc(NCCN(C)C)c2c1 [Compound 15],0.0329 ± 0.0051
22,CN1CCN(CCCCNc2cc(/C=C/c3ccccc3)nc3ccc(Cl)cc23)CC1 [Compound 94],0.0589 ± 0.0088

row,Structure (SMILES),EC50 [µM]
1,COc1ccc(/C=C/c2cc(NCCN(C)C)c3cc(F)ccc3n2)cc1 [Compound 19],0.0378 ± 0.0087
2,Fc1ccc(/C=C/c2cc(N3CCOCC3)c3cc(Cl)ccc3n2)cc1 [Compound 62],6.75 ± 1.08
3,Fc1cc(F)cc(/C=C/c2cc(NCCCCN3CCOCC3)c3cc(Cl)ccc3n2)c1 [Compound 103],0.185 ± 0.0341
4,CN1CCN(CCNc2cc(/C=C/c3ccncc3)nc3ccc(Cl)cc23)CC1 [Compound 87],0.0533 ± 0.0085
5,Clc1ccc2nc(-c3ccccc3)cc(NCCCCN3CCOCC3)c2c1 [Compound 119],0.423 ± 0.0627
6,Clc1ccc2nc(/C=C/c3ccncc3)cc(NCCN3CCCC3)c2c1 [Compound 85],0.0677 ± 0.0116
7,COc1ccc(/C=C/c2cc(NCCN(C)C)c3cc(F)ccc3n2)cc1OC [Compound 20],0.0411 ± 0.0006
8,Clc1ccc2nc(/C=C/c3ccncc3)cc(N3CCN(c4ccccn4)CC3)c2c1 [Compound 68],2.57 ± 0.61
9,CN(C)CCNc1cc(/C=C/c2ccc(N(C)C)cc2)nc2ccc(Cl)cc12 [Compound 28],0.0883 ± 0.0022
10,Clc1ccc2nc(/C=C/c3ccncc3)cc(Nc3ccc(N4CCCCC4)cc3)c2c1 [Compound 70],0.793 ± 0.0813
11,Fc1cc(/C=C/c2cc(NCCCCN3CCOCC3)c3cc(Cl)ccc3n2)cc(F)c1F [Compound 108],0.13 ± 0.0349
12,FC(F)(F)c1cc(/C=C/c2cc(NCCCCN3CCOCC3)c3cc(Cl)ccc3n2)cc(C(F)(F)F)c1 [Compound 102],0.108 ± 0.008
13,Cc1cc(NCCCN(C)C)c2cc(Cl)ccc2n1 [Compound 6e],1.25 ± 0.139
14,Fc1ccc(/C=C/C=C/c2cc(NCCCCN3CCOCC3)c3cc(Cl)ccc3n2)cc1 [Compound 113],0.0965 ± 0.0244
15,Fc1cc(F)c(F)c(/C=C/c2cc(NCCCCN3CCOCC3)c3cc(Cl)ccc3n2)c1 [Compound 106],0.588 ± 0.256
16,COc1ccc2nc(C)cc(NCCN(C)C)c2c1 [Compound 6a],5.52 ± 0.571
17,CN1CCN(CCCCNc2cc(/C=C/c3ccc(F)cc3)nc3ccc(Cl)cc23)CC1 [Compound 95],0.043 ± 0.0075
18,COc1ccc2nc(/C=C/c3cccnc3)cc(NCCN(C)C)c2c1 [Compound 43],0.071 ± 0.0275
19,COc1ccc(/C=C/c2cc(NCCN(C)C)c3cc(Cl)ccc3n2)cc1 [Compound 25],0.0348 ± 0.0079
20,Fc1ccc(/C=C/c2cc(NCCCCN3CCOCC3)c3cc(Cl)ccc3n2)nc1 [Compound 111],0.0731 ± 0.0119
21,CN(C)CCNc1cc(/C=C/c2ccc([N+](=O)[O-])cc2)nc2ccc(F)cc12 [Compound 17],0.0309 ± 0.0059

# Same assay, conditions: Dd2 strain
Structure (SMILES),IC50 [µM],EC50
Fc1ccc(/C=C/c2cc(NCCCCN3CCOCC3)c3cc(Cl)ccc3n2)cn1 [Compound 110],0.0546 ± 0.0165,
Cc1cc(NCCN(C)C)c2cc(Cl)ccc2n1 [Compound 6c],,inactive
Cc1cc(NCCCN(C)C)c2cc(Cl)ccc2n1 [Compound 6e],,inactive
COc1ccc2nc(C)cc(NCCN(C)C)c2c1 [Compound 6a],,inactive

# Same assay, conditions: Dd2 strain; read-out: EC50
row,Structure (SMILES),EC50
1,Fc1cnccc1/C=C/c1cc(NCCCCN2CCOCC2)c2cc(Cl)ccc2n1 [Compound 109],0.0796 ± 0.0118 µM
2,CN(C)CCNc1cc(/C=C/c2ccco2)nc2ccc(Cl)cc12 [Compound 47],0.037 ± 0.0043 µM
3,CN(C)CCNc1cc(/C=C/c2ccccc2)nc2ccc(F)cc12 [Compound 16],0.021 ± 0.0021 µM
4,COc1ccc2nc(/C=C/c3cccc([N+](=O)[O-])c3)cc(NCCN(C)C)c2c1 [Compound 11],0.0495 ± 0.004 µM
5,CN(C)CCNc1cc(CCc2ccncc2)nc2ccc(Cl)cc12 [Compound 59],0.259 ± 0.0155 µM
6,COc1ccc2nc(/C=C/c3ccc([N+](=O)[O-])cc3)cc(NCCN(C)C)c2c1 [Compound 9],0.0286 ± 0.0009 µM
7,COc1ccc2nc(/C=C/c3cc(NCCN(C)C)c4cc(Cl)ccc4n3)ccc2c1 [Compound 55],0.281 ± 0.0403 µM
8,COc1ccc2nc(/C=C/c3ccncc3)cc(NCCN(C)C)c2c1 [Compound 41],0.0336 µM and 0.0388 µM
9,CN(C)CCNc1cc(/C=C/c2cncnc2)nc2ccc(Cl)cc12 [Compound 53],0.155 ± 0.0116 µM
10,COc1ccc2nc(CCc3ccncc3)cc(NCCN(C)C)c2c1 [Compound 58],0.709 ± 0.0582 µM
11,Fc1cccnc1/C=C/c1cc(NCCCCN2CCOCC2)c2cc(Cl)ccc2n1 [Compound 112],0.197 ± 0.0165 µM
12,N#Cc1ccc(/C=C/c2cc(N3CCOCC3)c3cc(Cl)ccc3n2)cc1 [Compound 64],> 1 µM
13,COc1ccc2nc(/C=C/c3ccco3)cc(NCCN(C)C)c2c1 [Compound 39],0.0887 ± 0.0023 µM
14,CN(C)CCNc1cc(/C=C/c2ccco2)nc2ccc(F)cc12 [Compound 44],0.0826 ± 0.0094 µM
15,FC(F)(F)c1ccccc1/C=C/c1cc(NCCCCN2CCOCC2)c2cc(Cl)ccc2n1 [Compound 99],0.104 ± 0.0072 µM
16,CN(C)CCNc1cc(/C=C/c2cc3ccccc3[nH]2)nc2ccc(Cl)cc12 [Compound 54],0.0959 ± 0.0067 µM
17,COc1ccc2nc(/C=C/c3ccccc3)cc(NCCN(C)C)c2c1 [Compound 8],0.0412 ± 0.0053 µM
18,CN(C)CCNc1cc(/C=C/c2ccccc2)nc2ccccc12 [Compound 32],0.0807 ± 0.0224 µM
19,COc1ccc2nc(/C=C/c3ccccc3[N+](=O)[O-])cc(NCCN(C)C)c2c1 [Compound 10],0.0563 ± 0.0081 µM
20,COc1cc(/C=C/c2cc(NCCN(C)C)c3cc(F)ccc3n2)cc(OC)c1OC [Compound 21],0.0386 ± 0.0018 µM
